Reference: PMC8493801, “Exploring the Monoterpene Indole Alkaloid Scaffold for Reversing P-Glycoprotein-Mediated Multidrug Resistance in Cancer” (Pharmaceuticals, 2021)

Tests used:
[1] = test system: human ABCB1-transfected L5178Y mouse lymphoma cells; test: Checkerboard combination assay with doxorubicin; format: cell-based; design: key to CI at ED50 (combination index): CI <1 synergy, =1 additive, >1 antagonism; conditions: MDR cells; for CI at ED50 (combination index): best ratio
Experimental: The in vitro interactions between the compounds and the well-known antitumor drug and P-gp substrate, doxorubicin, were evaluated in a combination chemotherapy model on human ABCB1-transfected mouse T-lymphoma cells. The nature of drug–drug interactions was assessed by determination of the combination index (CI) using the Chou and Talalay method (Figure 1), and therefore evaluated as synergistic (CI < 1), additive (CI = 1), or antagonistic (CI > 1).
Doxorubicin (2 mg/mL, Teva Pharmaceuticals, Budapest, Hungary) was serially diluted horizontally in 100 µL as previously described, starting with 8.6 µM. The resistance modifier was subsequently diluted vertically in 50 µL; the starting concentration was determined based on the IC50. […] The checkerboard plates were kept for 72 h at 37 °C in a CO2 incubator, and at the end of the incubation period, the cell growth was determined by MTT staining method, as described earlier. Drug interactions were evaluated using Calcusyn software. Each dose–response curve (for individual agents as well as combinations) was fit to a linear model using the median effect equation in order to obtain the median effect value (corresponding to the IC50) and slope (m). The goodness-of-fit was assessed using the linear correlation coefficient, r, and only data from analysis with r > 0.90 were presented. The extent of interaction between drugs was expressed using the combination index, in which a CI value close to 1 indicates additivity, while a CI < 1 is defined as synergy and a CI > 1 as antagonism.

[2] = target: T1, recombinant human P-gp membranes (Homo sapiens, UniProt P08183); test: P-gp ATPase activity assay (Pgp-Glo); format: biochemical; conditions: 25 µM; for % basal P-gp activity: basal activity = 100%
T1 construct: purchased Promega
T1 sequence (P08183 whole entry): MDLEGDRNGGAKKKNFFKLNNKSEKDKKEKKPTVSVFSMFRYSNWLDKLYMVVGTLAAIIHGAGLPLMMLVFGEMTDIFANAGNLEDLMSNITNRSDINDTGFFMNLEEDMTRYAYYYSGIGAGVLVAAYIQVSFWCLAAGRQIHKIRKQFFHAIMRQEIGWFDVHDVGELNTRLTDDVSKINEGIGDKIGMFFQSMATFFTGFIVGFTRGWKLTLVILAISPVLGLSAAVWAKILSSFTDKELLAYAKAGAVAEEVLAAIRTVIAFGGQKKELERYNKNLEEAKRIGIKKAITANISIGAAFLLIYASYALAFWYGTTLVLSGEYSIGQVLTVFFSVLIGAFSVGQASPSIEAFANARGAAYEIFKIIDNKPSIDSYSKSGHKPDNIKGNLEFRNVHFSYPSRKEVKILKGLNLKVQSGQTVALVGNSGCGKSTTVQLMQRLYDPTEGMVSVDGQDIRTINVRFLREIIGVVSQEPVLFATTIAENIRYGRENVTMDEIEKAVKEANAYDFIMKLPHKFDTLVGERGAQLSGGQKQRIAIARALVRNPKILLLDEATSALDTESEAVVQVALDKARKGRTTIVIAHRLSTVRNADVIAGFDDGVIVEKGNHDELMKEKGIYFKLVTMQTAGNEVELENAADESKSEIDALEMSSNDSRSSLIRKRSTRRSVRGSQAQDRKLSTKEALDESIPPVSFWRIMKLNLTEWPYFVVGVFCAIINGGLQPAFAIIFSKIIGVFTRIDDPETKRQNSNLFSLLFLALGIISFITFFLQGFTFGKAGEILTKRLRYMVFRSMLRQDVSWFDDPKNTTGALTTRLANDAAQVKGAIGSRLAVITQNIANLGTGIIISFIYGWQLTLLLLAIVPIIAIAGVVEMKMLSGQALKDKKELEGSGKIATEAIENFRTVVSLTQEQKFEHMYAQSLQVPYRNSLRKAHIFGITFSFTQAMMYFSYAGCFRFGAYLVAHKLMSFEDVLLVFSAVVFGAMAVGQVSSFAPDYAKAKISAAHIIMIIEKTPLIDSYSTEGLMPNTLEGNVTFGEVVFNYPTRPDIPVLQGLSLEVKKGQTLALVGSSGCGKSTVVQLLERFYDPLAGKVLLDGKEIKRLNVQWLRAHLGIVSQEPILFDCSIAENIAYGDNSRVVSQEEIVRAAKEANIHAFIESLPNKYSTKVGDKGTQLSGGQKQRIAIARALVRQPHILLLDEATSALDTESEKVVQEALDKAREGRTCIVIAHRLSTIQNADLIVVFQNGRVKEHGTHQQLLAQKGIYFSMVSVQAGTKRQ
Description: Once it was established that ATP hydrolysis is directly associated with the P-gp efflux activity, the interaction mode between selected compounds (12, 17, 18, 20, and 29) and this transporter protein was further investigated using human P-gp membranes in the ATPase activity assay (P-gp-Glo^TM) to gather insights about their interaction with P-gp activity, namely, as stimulators or inhibitors. This ATPase activity assay is based on the ATP dependence of the light-generating reaction of firefly luciferase. After incubating P-gp with ATP, the reaction is stopped, and the ATP consumption by P-gp is given by a luciferase-generated luminescent signal due to the remaining unmetabolized ATP. Thus, a greater decrease in the signal means a higher P-gp activity.
Sodium orthovanadate (Vanadate, Na3VO4) is an inhibitor of P-gp ATPase activity; thus, after treating samples with vanadate, no P-gp-dependent ATP consumption is observed. Therefore, the P-gp basal ATP consumption (basal activity) is defined as the difference between the luminescent signal of samples treated with vanadate and untreated. Consequently, the tested compounds were ranked as stimulators or inhibitors by comparing their P-gp ATPase activity with the basal activity. Verapamil (0.5 mM), a known P-gp substrate and activator of the ATPase activity of this transporter, thus causing a decrease in the percentage of luminescence of luciferase when compared with untreated samples (Figure 2), was used as control. The results are represented in Figure 2 as the difference between the luminescence of luciferase observed when treated with the compounds and with vanadate in comparison with the basal activity (100%).
The P-glycoprotein ATPase activity was determined using the Pgp-Glo^TM Assay Systems Promega kit according to the manufacturer’s instructions. Briefly, 20 µL of recombinant human P-gp membranes (1.25 mg/mL), expressing high levels of human P-gp, were incubated in 20 µL of Pgp-Glo^TM assay buffer for 5 min at 37 °C. Compounds were tested at 25 µM sodium orthovanadate (Na3VO4, 0.25 mM) as an inhibitor control, verapamil as a substrate control (0.5 mM), and DMSO at 2% as solvent control. The reaction was initiated by adding 10 µL of 25 mM MgATP and incubated at 37 °C for 40 min. The ATPase reaction was stopped, and after adding 50 µL of ATP Detection Reagent, the samples were incubated at room temperature for 20 min. The luciferase-generated luminescent signal emitted was measured in a CLARIOstar Plus plate reader (BMG Labtech, UK) at 580 nm. The % of basal P-gp activity was calculated through the ratio between the luminescence measured of the P-gp ATPase activity of each compound and the basal activity according to Equation (4).
(4) % basal P-gp activity = LumNa3VO4−Lumtreated/LumNa3VO4−Lumuntreated×100%
Figure 2 Effect of compounds 12, 17, 18, 20, 29, and verapamil (VER) on P-gp ATPase activity. The compounds are identified as P-gp substrates if they stimulate its basal activity (>100%) or as modulators when inhibiting basal activity (<100%). Compounds were tested at 25 µM and verapamil at 0.5 mM. Results were calculated as the means ± SD from experiments performed in triplicates.

[3] = test system: human ABCB1-gene transfected L5178Y subline (MDR); conditions: for RR (relative resistance ratio) = IC50MDR/IC50PAR: RR ≤ 0.5 means CS effect
[4] = test system: mouse embryonic fibroblasts (NIH/3T3); test: MTT antiproliferative assay, non-cancer cells; format: cell-based; conditions: for SI C/B (Selectivity Index): IC50 NIH/3T3 / IC50 MDR; for SI C/A (Selectivity Index): IC50 NIH/3T3 / IC50 PAR; for IC50: NIH3T3, non-cancer mouse embryonic fibroblasts, MTT, read-out: IC50 NIH/3T3 (C)
Experimental: (§1) Non-cancer mouse embryonic fibroblasts (NIH/3T3) were also used.
In addition, the antiproliferative activity of the compounds was also evaluated on non-cancerous mouse embryonic fibroblast cells (NIH/3T3), whose values were compared with those of PAR and MDR cells by evaluation of the selective index (SI) values. […] The highest selective index values (SIC/A = 9.39; SIC/B = 10.79) were found for the derivative bearing the trimethoxyphenyl substituent (17).
(§2) L5178Y mouse T-lymphoma cells (ECACC catalog no. 87111908, US FDA, Silver Spring, MD, USA) were transfected with the pHa MDR1/A retrovirus as previously reported. The ABCB1 (P-gp) overexpressing cells were selected by culturing the infected cells with 60 ng/mL of colchicine (Sigma-Aldrich Chemie GmbH, Steinheim, Germany) to preserve the MDR phenotype. L5178Y (parental, PAR) mouse T-cell lymphoma cells and the human ABCB1-transfected subline were cultured in McCoy’s 5A supplemented with 10% heat-inactivated horse serum, 100 U/L L-glutamine, and 100 mg/L penicillin-streptomycin mixture, all obtained from Sigma-Aldrich. The mouse embryonic fibroblast (NIH 3T3) cell line was purchased from ATCC (CRL-1658) and was cultured in DMEM medium supplemented with 10% fetal bovine serum. These adherent cells were detached using 0.25% trypsin and 0.02% EDTA for 5 min at 37 °C. Before the antiproliferative assay using NIH 3T3 cell line, the cells were seeded in untreated 96-well flat bottomed microtiter plates, following a 4 h incubation period in a humidified atmosphere (5% CO2, 95% air) at 37 °C.

[5] = test system: sensitive L5178Y mouse T-lymphoma cells (PAR); test: MTT antiproliferative assay, sensitive cells; format: cell-based; conditions: 72 h, mean ± SD
Experimental: as §1, §2
The assay was performed according to the previously applied experimental settings.

Row | SMILES | Interaction [1] | CI at ED50 (combination index) [1] | Effect on P-gp ATPase activity [2] | % basal P-gp activity [2] | IC50 [3] | RR (relative resistance ratio) = IC50MDR/IC50PAR [3] | SI C/B (Selectivity Index) [4] | SI C/A (Selectivity Index) [4] | IC50 [4] | IC50 [5]
1 | CCC1CN(C)C2Cc3c([nH]c4ccccc34)C(=NN=Cc3ccc4ccccc4c3)CC1C2C(=O)OC (stereo not drawn) [Compound 18, 3-[(2″-naphthalenylmethylene)hydrazineylidene]dregamine] | Strong Synergism | 0.285 | inhibitors of P-gp ATPase activity | < 100% | 9.58 ± 0.74 µM | 0.85 | 1.22 | 1.04 | 11.7 ± 1.53 µM | 11.3 ± 0.84 µM
2 | CCC1CN(C)C2Cc3c([nH]c4ccccc34)C(=NN=Cc3cc4ccccc4[nH]3)CC1C2C(=O)OC (stereo not drawn) [Compound 20, 3-[((1H-indol-2-yl)methylene)hydrazineylidene]dregamine] | Strong Synergism | 0.291 | inhibitors of P-gp ATPase activity | < 100% | 8.73 ± 0.53 µM | 1.00 | 1.57 | 1.58 | 13.8 ± 0.69 µM | 8.72 ± 0.53 µM
3 | CCC1CN(C)C2Cc3c([nH]c4ccccc34)C(=NNC(=O)Nc3ccc(Br)cc3)CC1C2C(=O)OC (stereo not drawn) [Compound 29, 3-[2″-((4‴-bromophenyl)carbamoyl)hydrazineylidene]dregamine] | Strong Synergism | 0.173 | inhibitors of P-gp ATPase activity | < 100% | 7.4 ± 0.2 µM | 1.13 | 1.76 | 1.99 | 13 ± 0.4 µM | 6.56 ± 0.04 µM
